Reference: patent US20060183794A1, “Drug composition containing nf-kb inhibitor” (priority 2002, published 2006)

What was measured:
[1] = test system: cachexia symptoms induced by JCA-1 cells; assay: Cancer cachexia model, JCA-1 tumor-bearing BALB/c nude mice; assay type: in vivo
Description: To assay the effect of the compounds represented by the general formula (1) or pharmacologically acceptable salts thereof on cachexia, cachexia-induced BALB/c nude mice were used as model mice of human patients with cachexia. Here, cachexia symptoms were induced using the androgen-insensitive human prostatic cancer cell-line JCA-1.
To measure the effect of DHMEQ on cachexia symptoms, the cachexia model mice were prepared using the aforementioned nude mice. JCA-1 cells (1×10^7 cells) suspended in 100 μl of PBS were inoculated subcutaneously into the flank of six-old-week nude mice (hereafter called tumor-bearing mice). Fourteen days after the inoculation, when the tumors had reached palpable sizes, the inoculated mice were randomly assigned to three groups: group 2 (Gr2; n=13), given DHMEQ (8 mg/kg bw) every day; group 3 (Gr3; n=13), given DMSO every day; and group 4 (Gr4; n=11), given nothing. Group 1 (Gr1; n=14), consisting of normal nude mice not inoculated with JCA-1 cells (hereinafter called “normal mice”), was also included. From the next day of administration of DHMEQ, the body weights (FIG. 20) and the tumor weights (FIG. 21) calculated from the tumor diameters were measured every other day. On day 26 after the start of administration of DHMEQ, all mice were dissected and the tumor weights (FIG. 22), the weights of fat around the testis (FIG. 23) the gastrocnemius weights (FIG. 24), and the hematocrits (FIG. 25; the ratio of the volume of blood cell components to that of whole blood, which can be measured by blood centrifugation) were measured. The measured values were summed up for every group.

NF-κB = NF-κB (Homo sapiens, UniProt P19838+Q04206); assay: Gel shift assay of constitutive NF-κB activation in multiple myeloma cell lines; assay type: cell-based; parameters: endogenous in cells; host or cells: MM cell lines KMM1, RPMI8226, U266
Description: The ATL cell lines (MT-1 and TL-Om1) and the control cell lines (K562 and Jurkat+TNF), 2×10^6 cells each, were treated with 10 μg/ml DHM2EQ for 12 hours, and nuclear extract was prepared from each cell line. Likewise, nuclear extract was prepared also from the cell lines not treated with DHM2EQ. MT-1 and TL-Om1 are the cell lines transformed with HTLV-1; NF-κB is activated in these cell lines. K562 (myelocytic leukemia cell line) is a cell line in which constitutive NF-κB is not confirmed (a negative control), and Jurkat+TNF is a […] consensus oligomers (Promega) were end-labeled with [γ-^32P]-ATP and polynucleotide kinase (PNK) to prepare ^32P-labeled NF-κB probes.
The equivalent of 2 μg of nuclear extract protein was mixed with NF-κB probes (the equivalent of 10,000 cpm) in a volume of 20 μl and reacted at room temperature for 30 min. The solution after the reaction was subjected to 7.5% polyacrylamide gel electrophoresis. The gel was then dried and exposed to an X-ray film.
The MM cell lines, KMM1, RPMI8226, and U266 (2×10^6 cells each) were treated with 10 μg/ml of DHMEQ for 12 hours, and nuclear extract was prepared from each cell line. The gel shift assay was performed in the same method as in Example 4 and the inhibitory effect of DHMEQ on NF-κB was examined. […] The TNF-treated Jurkat (Jurkat+TNF) was used as the positive control.
Next, the MM cell lines, KMM1, RPMI8226, and U266 were treated with 10 μg/ml DHMEQ for 12 hours, and nuclear extract was prepared from each cell line. The gel shift assay was performed in the same method as in Example 4 (1) and the time-course inhibitory effect on NF-κB was examined.

[2] = test system: ICAM-1, VCAM-1, and E-selectin; assay: Western blot of adhesion molecule expression in TNF-α-stimulated HUVECs; assay type: cell-based, human; conditions: HUVECs pretreated with DHMEQ for 2 hours, 10 ng/ml TNF-α
Description: The protein concentration of this supernatant was determined by a liquid of Coomassie Brilliant Blue (Bio-Rad), and concentration was adjusted. Subsequently, 3×SDS loading buffer (150 mM Tris-HCl: pH 6.8, 30% glycerol, 3% SDS (Kanto Kagaku), 0.03 mg/ml bromophenol blue, 150 μl/ml 2-mercaptoethanol (Kanto Kagaku)) was added at a volume equal to half the volume of the lysis buffer that had been added, followed by boiling for 5 min. Using this as a sample, electrophoresis was performed in a 12.5% polyacrylamide gel. After the electrophoresis, the proteins in the gel were transferred to a PVDF membrane (Amersham) and blocked with TBS buffer (20 mM Tris-HCl: pH7.6, 137 mM NaCl) containing 5% skim milk (Snow Brand). Subsequently, the proteins were reacted with the PVDF membrane using antibodies to ICAM-1 (Santa Cruz), VCAM-1 (Santa Cruz), and E-selectin (Santa Cruz), followed by reactions with secondary antibodies (the secondary antibodies to ICAM-1, VCAM-1, and E-selectin (Amersham and Santa Cruz)) suitable to each primary antibody. Further, color was developed by the ECL method, followed by exposure to a film.

[3] = test system: Hodgkin's lymphoma cell lines KMH-2 and L-540; assay: MTT assay, proliferation of Hodgkin's lymphoma cell lines; assay type: cell-based
Description: (§1) Cells from the ATL cell lines (MT-1 and TL-Om1) and a control cell line (K562) were plated in 96-well plates at 1×10^5 cells/well and DHM2EQ was added at the desired final concentrations (2, 5, and 10 μg/ml). Cells to which the solvent DMSO had been added in equal volume (0 μg/ml) were used as […] incubation for 72 hours, cell viability was judged by the MTT assay. Relative MTT values were obtained as the ratio of the MMT values of DHM2EQ-treated cells to those of DHM2EQ-untreated cells, i.e., (MTT values of DHM2EQ-treated cells/MTT values of DHM2EQ-untreated cells)×100(%).
(§2) DHM2EQ was added to the ATL cell lines (MT-1 and TL-Om1) and a control cell line (K562) at a final concentration of 10 μg/ml and the cells were incubated for 12, 24, 48, and 72 hours. The proliferation-inhibitory effect was examined by the MTT assay. Cells to which the solvent DMSO had been added in equal volume were used as controls. Relative MTT values were obtained in the same manner as the aforementioned (1).
(§3) Time-course analysis and concentration dependence analysis of the inhibitory effect of DHM2EQ on proliferation of Hodgkin's lymphoma cells were performed in the same manner as in Example 2. As Hodgkin's lymphoma cells, the Hodgkin's lymphoma cell lines KMH-2 and L-540 were used.

[4] = test system: K562 (myelocytic leukemia cell line); assay: MTT assay, proliferation of control cell line K562; assay type: cell-based
Description: as §1, §2, §3

[5] = 8 mg/kg bw every day, day 26, Gr2 vs Gr3 and Gr4

Chain of NF-κB (Q04206 whole entry): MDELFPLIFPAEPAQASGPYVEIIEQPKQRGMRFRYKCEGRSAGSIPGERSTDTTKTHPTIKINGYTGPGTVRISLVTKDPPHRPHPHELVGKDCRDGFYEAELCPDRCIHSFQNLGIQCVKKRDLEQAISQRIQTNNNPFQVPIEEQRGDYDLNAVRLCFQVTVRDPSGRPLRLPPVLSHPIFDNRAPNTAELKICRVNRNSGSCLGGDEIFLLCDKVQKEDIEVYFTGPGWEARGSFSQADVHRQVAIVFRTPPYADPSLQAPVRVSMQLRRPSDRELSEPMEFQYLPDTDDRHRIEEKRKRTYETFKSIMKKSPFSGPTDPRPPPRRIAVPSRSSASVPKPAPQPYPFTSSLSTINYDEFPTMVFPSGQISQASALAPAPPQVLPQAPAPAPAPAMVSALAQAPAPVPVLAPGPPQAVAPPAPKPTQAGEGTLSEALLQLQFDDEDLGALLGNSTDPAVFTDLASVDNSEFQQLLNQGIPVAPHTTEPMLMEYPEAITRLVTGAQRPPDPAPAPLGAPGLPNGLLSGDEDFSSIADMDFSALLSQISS
Chain of NF-κB (P19838 1-433 limits assumed): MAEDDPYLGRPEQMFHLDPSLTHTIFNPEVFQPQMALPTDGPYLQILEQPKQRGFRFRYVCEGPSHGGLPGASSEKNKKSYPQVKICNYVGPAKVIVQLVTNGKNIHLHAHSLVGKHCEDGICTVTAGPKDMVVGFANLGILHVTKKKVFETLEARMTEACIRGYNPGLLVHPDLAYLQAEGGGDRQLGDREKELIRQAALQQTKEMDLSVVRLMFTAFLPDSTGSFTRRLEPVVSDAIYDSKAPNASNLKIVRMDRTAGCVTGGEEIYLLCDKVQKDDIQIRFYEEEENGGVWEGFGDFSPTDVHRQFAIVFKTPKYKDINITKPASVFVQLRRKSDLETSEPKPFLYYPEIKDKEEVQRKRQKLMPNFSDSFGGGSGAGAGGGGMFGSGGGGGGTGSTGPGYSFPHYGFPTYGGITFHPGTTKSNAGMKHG

O=C(NC1=CC(=O)C2OC2C1O)c1ccccc1O (centres unmarked) [DHMEQ, 5,6-epoxy-4-hydroxy-3-salicyloylamino-2-cyclohexenone]
body weight reduction ([1]; 8 mg/kg bw every day (Gr2) vs Gr3 and Gr4): significantly suppressed | influence on internal organ weights ([1]; 8 mg/kg bw every day, day 26): No unfavorable influence | regressive effect on tumors (tumor weight) ([1]; 8 mg/kg bw every day, day 26): no regressive effect | gastrocnemius weight [1, 5]: weight reduction was significantly suppressed | hematocrit [1, 5]: significant tendency of recovery | weight of fat around the testis [1, 5]: weight reduction was significantly suppressed | signals by NF-κB (gel shift) (NF-κB; KMM1, RPMI8226, U266, 10 μg/ml DHMEQ, 12 hours): lost | persistence of inhibition of NF-κB activation (NF-κB; MM cell lines, 10 μg/ml): sustained even after a lapse of 16 hours | activation of NF-κB, time course (gel shift) (NF-κB; MM cell lines, 10 μg/ml, 1 hour after treatment): almost inhibited | expression of ICAM-1, VCAM-1 and E-selectin [2]: markedly suppressed | cell proliferation, concentration dependence [3]: inhibited in proportion to the DHM2EQ concentrations added | cell proliferation, time course [3]: inhibited in proportion to the DHM2EQ treatment time | cell proliferation, time course (MTT) ([4]; 10 μg/ml, 12, 24, 48, 72 hours, listed as DHM2EQ): hardly inhibited even after time had elapsed | cell proliferation, concentration dependence (MTT) ([4]; 2, 5, 10 μg/ml, 72 hours): hardly inhibited
